# From patent publication US9149038B2, “4-amino-6-(heterocyclic)picolinates and 6-amino-2-(heterocyclic)pyrimidine-4-carboxylates and their use as herbicides” (Dow AgroSciences LLC, priority 2013, dated 2015)
# Read-outs that look alike come from different tables or passages of the source.
# Test system: Direct Seeded Rice and weed species
# Assay: Postemergence herbicidal activity in direct seeded rice, visual rating after 20-22 days and probit GR20/GR50/GR80/GR90 (Table 14)
# Assay type: in vivo
# Details: for pest or weed control at 17.5 g/ha / pest or weed control at 35 g/ha / pest or weed control at 70 g/ha: post-emergence, 504 h, postemergence; for pest or weed control at 17.5 g/ha: 17.5 g ai/ha; for pest or weed control at 35 g/ha: 35 g ai/ha; for pest or weed control at 70 g/ha: 70 g ai/ha
# Description: Herbicidal evaluations were made visually on a scale of 0 to 100 where 0 represents no activity and 100 represents complete plant death. Seeds or nutlets of the desired test plant species were planted in a soil matrix prepared by mixing a loam soil (43 percent silt, 19 percent clay, and 38 percent sand, with a pH of about 8.1 and an organic matter content of about 1.5 percent) and river sand in an 80 to 20 ratio. The soil matrix was contained in plastic pots with a surface area of 139.7 cm^2. When required to ensure good germination and healthy plants, a fungicide treatment and/or other chemical or physical treatment was applied. The plants were grown for 10-17 d in a greenhouse with an approximate 14-h photoperiod which was maintained at about 29° C. during the day and 26° C. during the night. Nutrients and water were added on a regular basis and supplemental lighting was provided with overhead metal halide 1000-Watt lamps as necessary. The plants were employed for testing when they reached the second or third true leaf stage. A weighed amount, determined by the highest rate to be tested, of each test compound was placed in 25 mL glass vials and dissolved in a volume of 97:3 v/v acetone-DMSO to obtain 12× stock solutions. […] The concentrated stock solutions were added to the spray solutions so that the final acetone and DMSO concentrations were 16.2% and 0.5%, respectively. Spray solutions were diluted to the appropriate final concentrations with the addition of 10 mL of an aqueous mixture of 1.5% (v/v) Agri-dex crop oil concentrate. The final spray solutions contained 1.25% (v/v) Agri-dex crop oil concentrate. Compound requirements are based upon a 12 mL application volume at a rate of 187 L/ha. Formulated compounds were applied to the plant material with an overhead Mandel track sprayer equipped with […] nozzles calibrated to deliver 187 L/ha over an application area of 0.503 square meters (m^2) at a spray height of 18 inches (43 cm) above average plant canopy height. Control plants were sprayed in the same manner with the solvent blank. The treated plants and control plants were placed in a greenhouse as described above and watered by sub-irrigation to prevent wash-off of the test compounds. After 20-22 days, the condition of the test plants, compared with that of the untreated plants, was determined visually and scored on a scale of 0 to 100 percent where 0 corresponds to no injury and 100 corresponds to complete kill and are presented as indicated in Table 4. By applying the well-accepted probit analysis as described by J. Berkson in Journal of the American Statistical Society, 48, 565 (1953) and by D. Finney in “Probit Analysis” Cambridge University Press (1952), herbicidal injury of a specific compound at various rates can be used to calculate GR20, GR50, GR80 and GR90 values, which are defined as growth reduction factors that correspond to the effective dose of herbicide required to provide plant growth reduction (GR) of 20 percent, 50 percent, 80 percent and 90 percent, respectively. Probit analysis was applied to data collected from multiple dose rates of individual compounds utilizing the procedures explained in the following examples. The data for some of the dose rates and analysis of all of the dose rates are captured in the following tables.
# [1] = BRAPP (broadleaf signalgrass, Brachiaria platyphylla), read-out: Visual Growth Reduction (%) 21 Days After Application BRAPP
# [2] = CYPDI (small-flower flatsedge, Cyperus difformis), read-out: Visual Growth Reduction (%) 21 Days After Application CYPDI
# [3] = CYPES (yellow nutsedge, Cyperus esculentus), read-out: Visual Growth Reduction (%) 21 Days After Application CYPES
# [4] = CYPIR (rice flatsedge, Cyperus iria), read-out: Visual Growth Reduction (%) 21 Days After Application CYPIR
# [5] = DIGSA (large crabgrass, Digitaria sanguinalis), read-out: Visual Growth Reduction (%) 21 Days After Application DIGSA
# [6] = ECHCG (barnyardgrass, Echinochloa crus-galli), read-out: Visual Growth Reduction (%) 21 Days After Application ECHCG
# [7] = ECHCO (junglerice, Echinochloa colonum), read-out: Visual Growth Reduction (%) 21 Days After Application ECHCO
# [8] = LEFCH (Chinese sprangletop, Leptochloa chinensis), read-out: Visual Growth Reduction (%) 21 Days After Application LEFCH
# [9] = ORYSJ (Oryza sativa, rice crop), read-out: Visual Growth Reduction (%) 21 Days After Application ORYSJ
# [10] = ORYSK (Oryza sativa, rice crop), read-out: Visual Growth Reduction (%) 21 Days After Application ORYSK
# [11] = SCPJU (Japanese bulrush, Schoenoplectus juncoides Roxb.), read-out: Visual Growth Reduction (%) 21 Days After Application SCPJU
# [12] = SEBEX (hemp sesbania, Sesbania exaltata), read-out: Visual Growth Reduction (%) 21 Days After Application SEBEX
compound,measurement,setting,value
COC(=O)c1nc(-c2ccc3c(c2F)OC(F)(F)O3)c(F)c(N)c1Cl [Compound 10],GR50 BRAPP,"BRAPP (Brachiaria platyphylla), probit analysis, dose for 50 percent growth reduction",7 g ai/ha
same,GR80 BRAPP,"BRAPP (Brachiaria platyphylla), probit analysis, dose for 80 percent growth reduction",16 g ai/ha
same,GR90 BRAPP,"BRAPP (Brachiaria platyphylla), probit analysis, dose for 90 percent growth reduction",24 g ai/ha
same,GR50 CYPDI,"CYPDI (Cyperus difformis), probit analysis, dose for 50 percent growth reduction",4 g ai/ha
same,GR80 CYPDI,"CYPDI (Cyperus difformis), probit analysis, dose for 80 percent growth reduction",8 g ai/ha
same,GR90 CYPDI,"CYPDI (Cyperus difformis), probit analysis, dose for 90 percent growth reduction",10 g ai/ha
same,GR50 CYPES,"CYPES (Cyperus esculentus), probit analysis, dose for 50 percent growth reduction",<18 g ai/ha
same,GR80 CYPES,"CYPES (Cyperus esculentus), probit analysis, dose for 80 percent growth reduction",<18 g ai/ha
same,GR90 CYPES,"CYPES (Cyperus esculentus), probit analysis, dose for 90 percent growth reduction",<18 g ai/ha
same,GR50 CYPIR,"CYPIR (Cyperus iria), probit analysis, dose for 50 percent growth reduction",6 g ai/ha
same,GR80 CYPIR,"CYPIR (Cyperus iria), probit analysis, dose for 80 percent growth reduction",10 g ai/ha
same,GR90 CYPIR,"CYPIR (Cyperus iria), probit analysis, dose for 90 percent growth reduction",13 g ai/ha
same,GR50 DIGSA,"DIGSA (Digitaria sanguinalis), probit analysis, dose for 50 percent growth reduction",1 g ai/ha
same,GR80 DIGSA,"DIGSA (Digitaria sanguinalis), probit analysis, dose for 80 percent growth reduction",8 g ai/ha
same,GR90 DIGSA,"DIGSA (Digitaria sanguinalis), probit analysis, dose for 90 percent growth reduction",21 g ai/ha
same,GR50 ECHCG,"ECHCG (Echinochloa crus-galli), probit analysis, dose for 50 percent growth reduction",10 g ai/ha
same,GR80 ECHCG,"ECHCG (Echinochloa crus-galli), probit analysis, dose for 80 percent growth reduction",14 g ai/ha
same,GR90 ECHCG,"ECHCG (Echinochloa crus-galli), probit analysis, dose for 90 percent growth reduction",16 g ai/ha
same,GR50 ECHCO,"ECHCO (Echinochloa colonum), probit analysis, dose for 50 percent growth reduction",6 g ai/ha
same,GR80 ECHCO,"ECHCO (Echinochloa colonum), probit analysis, dose for 80 percent growth reduction",14 g ai/ha
same,GR90 ECHCO,"ECHCO (Echinochloa colonum), probit analysis, dose for 90 percent growth reduction",21 g ai/ha
same,GR50 LEFCH,"LEFCH (Leptochloa chinensis), probit analysis, dose for 50 percent growth reduction",12 g ai/ha
same,GR80 LEFCH,"LEFCH (Leptochloa chinensis), probit analysis, dose for 80 percent growth reduction",20 g ai/ha
same,GR90 LEFCH,"LEFCH (Leptochloa chinensis), probit analysis, dose for 90 percent growth reduction",27 g ai/ha
same,GR20 ORYSJ,"ORYSJ (Oryza sativa, rice crop), probit analysis, dose for 20 percent growth reduction",14 g ai/ha
same,GR20 ORYSK,"ORYSK (Oryza sativa, rice crop), probit analysis, dose for 20 percent growth reduction",20 g ai/ha
same,GR50 SCPJU,"SCPJU (Schoenoplectus juncoides Roxb.), probit analysis, dose for 50 percent growth reduction",0.0002 g ai/ha
same,GR80 SCPJU,"SCPJU (Schoenoplectus juncoides Roxb.), probit analysis, dose for 80 percent growth reduction",0.0207 g ai/ha
same,GR90 SCPJU,"SCPJU (Schoenoplectus juncoides Roxb.), probit analysis, dose for 90 percent growth reduction",0.268 g ai/ha
same,GR50 SEBEX,"SEBEX (Sesbania exaltata), probit analysis, dose for 50 percent growth reduction",3 g ai/ha
same,GR80 SEBEX,"SEBEX (Sesbania exaltata), probit analysis, dose for 80 percent growth reduction",8 g ai/ha
same,GR90 SEBEX,"SEBEX (Sesbania exaltata), probit analysis, dose for 90 percent growth reduction",13 g ai/ha
same,pest or weed control at 17.5 g/ha,[1],85 to 94%
same,pest or weed control at 35 g/ha,[1],95 to 100%
same,pest or weed control at 70 g/ha,[1],95 to 100%
same,pest or weed control at 17.5 g/ha,[2],95 to 100%
same,pest or weed control at 35 g/ha,[2],95 to 100%
same,pest or weed control at 70 g/ha,[2],95 to 100%
same,pest or weed control at 17.5 g/ha,[3],95 to 100%
same,pest or weed control at 35 g/ha,[3],95 to 100%
same,pest or weed control at 70 g/ha,[3],95 to 100%
same,pest or weed control at 17.5 g/ha,[4],95 to 100%
same,pest or weed control at 35 g/ha,[4],95 to 100%
same,pest or weed control at 70 g/ha,[4],95 to 100%
same,pest or weed control at 17.5 g/ha,[5],95 to 100%
same,pest or weed control at 35 g/ha,[5],85 to 94%
same,pest or weed control at 70 g/ha,[5],95 to 100%
same,pest or weed control at 17.5 g/ha,[6],95 to 100%
same,pest or weed control at 35 g/ha,[6],95 to 100%
same,pest or weed control at 70 g/ha,[6],95 to 100%
same,pest or weed control at 17.5 g/ha,[7],85 to 94%
same,pest or weed control at 35 g/ha,[7],95 to 100%
same,pest or weed control at 70 g/ha,[7],95 to 100%
same,pest or weed control at 17.5 g/ha,[8],60 to 74%
same,pest or weed control at 35 g/ha,[8],95 to 100%
same,pest or weed control at 70 g/ha,[8],95 to 100%
same,pest or weed control at 17.5 g/ha,[9],0 to 29%
same,pest or weed control at 35 g/ha,[9],60 to 74%
same,pest or weed control at 70 g/ha,[9],75 to 84%
same,pest or weed control at 17.5 g/ha,[10],0 to 29%
same,pest or weed control at 35 g/ha,[10],45 to 59%
same,pest or weed control at 70 g/ha,[10],75 to 84%
same,pest or weed control at 17.5 g/ha,[11],95 to 100%
same,pest or weed control at 35 g/ha,[11],95 to 100%
same,pest or weed control at 70 g/ha,[11],95 to 100%
same,pest or weed control at 17.5 g/ha,[12],95 to 100%
same,pest or weed control at 35 g/ha,[12],95 to 100%
same,pest or weed control at 70 g/ha,[12],95 to 100%
